Test results as given in publication PMC4336777 (Archives of biochemistry and biophysics, 2014).
Entries after “also recorded” stand apart in the source; their conditions may differ. Read-outs that look alike come from different tables or passages of the source.

Assays:
Myeloperoxidase (MPO) [1] = target: T1, Myeloperoxidase (MPO) (Homo sapiens, UniProt P05164); experiment: MPO fluorescence stopped flow assay; conditions: for k−3: same fixed constants; for Akaike weight / ΔAICc: Dynafit 3 model discrimination; for best fitting slow binding inhibition model: Akaike information criterion based discrimination
T1 sequence (P05164 165-273 limits assumed): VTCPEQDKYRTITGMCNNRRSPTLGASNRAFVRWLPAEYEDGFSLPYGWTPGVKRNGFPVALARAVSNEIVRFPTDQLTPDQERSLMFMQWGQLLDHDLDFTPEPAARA
T1 sequence (P05164 279-745 limits assumed): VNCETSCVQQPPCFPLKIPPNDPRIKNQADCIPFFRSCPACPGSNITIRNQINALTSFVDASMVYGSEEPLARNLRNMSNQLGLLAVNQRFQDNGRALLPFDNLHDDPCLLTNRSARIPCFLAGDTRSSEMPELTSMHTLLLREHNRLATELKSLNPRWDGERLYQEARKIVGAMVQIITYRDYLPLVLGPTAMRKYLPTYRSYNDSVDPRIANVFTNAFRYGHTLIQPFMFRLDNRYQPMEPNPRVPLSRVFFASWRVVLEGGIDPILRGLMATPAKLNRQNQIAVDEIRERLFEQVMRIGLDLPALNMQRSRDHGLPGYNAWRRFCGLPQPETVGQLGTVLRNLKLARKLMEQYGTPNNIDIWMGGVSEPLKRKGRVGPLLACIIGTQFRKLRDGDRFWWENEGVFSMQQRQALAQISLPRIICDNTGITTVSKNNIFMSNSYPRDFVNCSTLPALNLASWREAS

Myeloperoxidase (MPO) [2] = target: T1, Myeloperoxidase (MPO); conditions: for apparent kcat of MPO for ADHP in presence of inhibitor: Lineweaver-Burk
Myeloperoxidase (MPO) [3] = target: T1, Myeloperoxidase (MPO); conditions: MPO 23 nM pre-incubated with inhibitor 1 hr without H2O2, dialysis, then H2O2
Myeloperoxidase (MPO) [4] = target: T1, Myeloperoxidase (MPO); experiment: SDS-PAGE analysis of inhibitor-mediated cleavage of MPO; type: biochemical; conditions: MPO 1.2 μM, ADHP 40 μM, inhibitor 0-25 mM, H2O2 20 μM, 10 min, room temperature
[5] = 1 or 2-step slow tight-binding fit, DynaFit 3, fixed k+1 = 10 μM^−1s^−1, k−1 = 80 s^−1, k+2 = 224 s^−1, pH 5.6, 25°C
[6] = 1 or 2-step slow tight-binding fit, DynaFit 3
[7] = 2-step slow tight-binding fit, DynaFit 3

SMILES | k+3 (Myeloperoxidase (MPO) [1]; [5]) | k−3 (Myeloperoxidase (MPO) [1]; [6]) | Akaike weight (Myeloperoxidase (MPO) [1]; 1 step model) | ΔAICc (Myeloperoxidase (MPO) [1]; 1 step model) | Akaike weight (Myeloperoxidase (MPO) [1]; 2 step model) | ΔAICc (Myeloperoxidase (MPO) [1]; 2 step model) | Ki (Myeloperoxidase (MPO) [1]; Ki, Ki = k−3/k+3, DynaFit 3) [nM] | best fitting slow binding inhibition model (Myeloperoxidase (MPO) [1]) | further results
NNC(=O)c1ccc(F)cc1 [4-FBAH, 4-fluorobenzoic acid hydrazide] | 0.0075 ± 4.93E-05 μM^−1s^−1 | 0.0062 ± 0.0001 s⁻¹ | 0.9196 | 0 | 0.0804 | 4.9 | 830 |  | 
NNC(=O)c1ccc([N+](=O)[O-])cc1 [4-NBAH, 4-nitrobenzoic acid hydrazide] |  |  |  |  |  |  | 3700 |  | 
[N-]=[N+]=[N-].[Na+] [NaN3, sodium azide, reference compound] |  | 0.156 ± 0.001 s⁻¹ | 0.8814 | 0 | 0.1186 | 4.0 |  | one-step slow binding inhibition model | type of inhibition with ADHP (Myeloperoxidase (MPO) [2]; Lineweaver-Burk plots, 0, 7.5, 30 μM NaN3): competitive inhibition or mixed-type inhibition; apparent kcat of MPO for ADHP in presence of inhibitor (Myeloperoxidase (MPO) [2]; NaN3 7.5 μM): 161 s⁻¹; apparent kcat of MPO for ADHP in presence of inhibitor (Myeloperoxidase (MPO) [2]; NaN3 30 μM): 108 s⁻¹; fold reduction in apparent specificity constant (kcat/Km) (Myeloperoxidase (MPO) [2]; native system versus 30 μM NaN3): 11 fold; reversibility of inhibitor binding to MPO after equilibrium dialysis (Myeloperoxidase (MPO) [3]): reversible; Ki (Myeloperoxidase (MPO) [1]; Ki = k−3/k+3, DynaFit 3): 840 nM; k+3 (Myeloperoxidase (MPO) [1]; pH 5.6): 0.185 ± 0.0018 µM⁻¹ s⁻¹
NNC(=O)c1ccc(C(F)(F)F)cc1 [4-TFMBAH, 4-(trifluoromethyl) benzoic acid hydrazide] | 0.0013 ± 1.36E-05 μM^−1s^−1 | 0.004 ± 0.0002 s⁻¹ | 0.909 | 0 | 0.09104 | 4.6 | 3080 | one-step slow binding inhibition model | 
NNC(=O)c1ccccc1N [2-ABAH, 2-aminobenzoic acid hydrazide] | 0.10 ± 0.0014 µM⁻¹ s⁻¹ | 0.026 ± 0.0003 s⁻¹ | 0.01127 | 8.9 | 0.9887 | 0 | 260 | two-step slow binding inhibitor; also recorded: two-step mechanism | k+4 (Myeloperoxidase (MPO) [1]; [7]): 0.0067 ± 0.0004 s⁻¹; k−4 (Myeloperoxidase (MPO) [1]; [7]): 0.0094 ± 0.002 s⁻¹; Ki (Myeloperoxidase (MPO) [1]; Ki* (overall inhibition constant, two-step model), two-step slow tight-binding model, Eq. 9): 160 nM; fold higher affinity inhibitor of Compound I as compared to isoniazid (Myeloperoxidase (MPO) [1]; from Ki* versus Ki of isoniazid): 62 fold
NNC(=O)c1ccncc1 [Isoniazid, isonicotinylhydrazine, reference compound] | 0.0011 ± 7.31E-06 μM^−1s^−1 | 0.011 ± 0.0001 s⁻¹ | 0.8857 | 0 | 0.1143 | 4.1 | 10000 | one-step slow binding inhibition model | 
CN(C)c1cccc(C(=O)NN)c1 [3-DMABAH, 3-(dimethylamino) benzoic acid hydrazide] |  |  |  |  |  |  | 560 |  | 
NNC(=O)c1ccccc1 [BAH, benzoic acid hydrazide] | 0.0098 ± 5.47E-05 μM^−1s^−1 | 0.0068 ± 9.5E-05 s^−1 | 0.9969 | 0 | 0.00315 | 11.5 | 690 |  | cleavage of MPO light chain-heme from heavy chain (Myeloperoxidase (MPO) [4]): light chain of MPO is cleaved from MPO
OO [H2O2, hydrogen peroxide] |  |  |  |  |  |  |  |  | Ki (Myeloperoxidase (MPO) [2]; read-out: apparent inhibitory rate constant Ki (substrate inhibition)): 10.8 nM
CC(=O)N1c2ccc(O)cc2Oc2cc(O)ccc21 [ADHP, 10-acetyl-3,7-dihydroxyphenoxazine, reference compound] |  |  |  |  |  |  |  |  | kon (Myeloperoxidase (MPO) [1]; read-out: apparent second order rate constant (K^appon)): 2100 ± 200 M⁻¹ s⁻¹
